Reference: US20230037103A1, “USE OF A COMPOUND OF 4-(3-ETHOXY-4-HYDROXYPHENYL) ALKYL KETONE TYPE AGAINST BACTERIA OF THE BURKHOLDERIA CEPACIA COMPLEX” (L’OREAL, priority 2019, published 2023)

Legend:
[1] = tested on: bacteria of the Burkholderia cepacia complex; assay: Sensitivity test (MIC/MBC by agar dilution and broth dilution) on a Burkholderia strain panel; format: cell-based
Method: The minimum inhibitory concentration (MIC) and the minimum bactericidal concentration (MBC) of compounds of formula (I) of the invention, in particular EZ, were determined by standardized agar dilution and broth dilution tests, described by Rushton et al. Key role for efflux in the preservative susceptibility and adaptive resistance of Burkholderia cepacia complex bacteria. Antimicrobial Agents and Chemotherapy, 2013. 57(7): p. 2972-2980 using TSA/TSB. The culture was carried out at 30° C. in order to be representative of the production and storage of industrial products. Preserving stock solutions (50% w/v) were prepared in DMSO (Sigma-Aldrich, United Kingdom) and volumes were added to the medium so as to achieve the test concentration. The final concentration of DMSO in the presence of the bacterium was verified to be non-toxic (not exceeding 4% v/v) and was included as control condition in the tests in order to eliminate the effect on growth. […] The efficacy and toxicity of the neutralizing solution were evaluated before the experiment, as described in the scientific publication by Lear, J. C., et al. (J. C., et al., Chloroxylenol- and triclosan-tolerant bacteria from industrial sources—Susceptibility to antibiotics and other biocides. International Biodeterioration and Biodegradation, 2006. 57(1): p. 51-56). […]

[2] = tested on: bacteria of the Burkholderia cepacia complex; assay: Reduction in viability of Bcc bacteria (preservative activity); format: cell-based; conditions: in 4 hours
[3] = tested on: bacteria of the Bcc complex; conditions: levels used in industry; cited from earlier work

SMILES: CCOc1cc(CCC(C)=O)ccc1O [EZ, 4-(3-ethoxy-4-hydroxyphenyl)butan-2-one]
- inhibitory activity with respect to bacteria of the Burkholderia cepacia complex [1]: very significant inhibitory activity
- efficacy against a diversified panel of 57 Burkholderia strains ([1]; strains representing species commonly encountered as contaminants, culture at 30° C.): excellent efficacy
- reduction in viability [2]: 6 log

SMILES: O=C([O-])c1ccccc1.[Na+] [sodium benzoate]
- efficacy with respect to contamination by bacteria of the Bcc complex [3]: ineffective
